The test system of test [1] is CD8^+ 2C lymph node cells. As to the kind of experiment: Primary proliferative response of CD8+ 2C lymph node cells to peptides presented by transfected fly cells (3HTdR). It counts as cell-based, mouse. To be noted: peptide 10 μM. The protocol:
Using a standard tissue culture system (Cai, Z. and Sprent, J. (1994) J. Exp. Med. 179: 2005-2015), doses of 5×10^4 purified CD8^+ 2C lymph node (LN) cells were cultured at 37° C. with doses of 3×10^5 transfected fly cells ±peptides (10 μM final concentration). Peptides were synthesized by R. W. Johnson Pharmaceutical Research Institute (Sykulev, et al. (1994) Immunity 1: 15-22. Proliferative responses were measured by adding ^3HTdR (1 μCi/well) 8 hours prior to harvest. IL-2 production was measured by removing supernatants from the cultures at 48 hours and adding 50 μl supernatant to an IL-2 responsive indicator cell line (CTLL); proliferation of the indicator line was measured by addition of ^3HTdR. The data shown in Table 2 are the means of triplicate cultures. The transfected Drosophila S2 cells die rapidly at 37° C. and fail to incorporate ^3HTdR at this temperature.

The test system of a further test is 2C+ T-cells. In words: Rosetting of 2C+ T-cells with L^d-bearing supports plus peptide. It counts as cell-based, mouse. Conditions: peptide 0.02 mM. The protocol:
Rosetting experiments verified that the attached MHC molecules interacted functionally with T-cells. Drosophila S2 cells expressing L^d, L^d-coated SRBC were incubated with QL9 peptide (0.02 mM) or an irrelevant peptide (MCMV, 0.02 mM) for 30 minutes on ice; 2C+ T-cells were then added, the proportion being 10 2C+ T-cells for 1 Drosophila S2 cell, or 10 SRBC for 1 2C+ T-cell; the mixture was pelleted and kept on ice for at least 30 min. Cells were then carefully resuspended and rosettes were counted, a rosette being a Drosophila S2 cell bound to at least 3 2C+ T-cells, or a 2C+ T-cell bound to at least 3 SRBC. […] Typically, 30-40% of the lymphocytes were included in rosettes when QL9 peptide was added.
Rosetting experiments verified that the attached MHC molecules on latex beads interacted functionally with T-cells. Drosophila S2 cells expressing recombinant L^d and L^d-coated latex beads were incubated with QL9 peptide (0.02 mM) or an irrelevant peptide (MCMV, 0.02 mM) for 30 minutes on ice; 2C+ T-cells were then added, the proportion being 10 2C+ T-cells for 1 Drosophila S2 cell, or […]; the mixture was pelleted and kept on ice for at least 30 min. Cells were then carefully resuspended and rosettes were counted, a rosette being a Drosophila S2 cell bound to at least 3 2C+ T-cells, or a 2C+ T-cell bound to at least 3 latex beads. […]

On to “Gln-Leu-Ser-Pro-Phe-Pro-Phe-Asp-Leu [QL9]”, for which the “Proliferation (Day 3) ^3HTdR incorporation, fly cells expressing L^d” value in test [1] (APC L^d) stood at 0.2 cpm × 10^3. Also, the “Proliferation (Day 3) ^3HTdR incorporation, fly cells expressing L^d + B7.1” value in test [1] (APC L^d + B7.1) was 60.9 cpm × 10^3. Besides, in test [1] (APC L^d + B7.1 + ICAM-1), the “Proliferation (Day 3) ^3HTdR incorporation, fly cells expressing L^d + B7.1 + ICAM-1” value came to 263.7 cpm × 10^3. The “Proliferation (Day 3) ^3HTdR incorporation, fly cells expressing L^d + ICAM-1” value in test [1] (APC L^d + ICAM-1) is listed as 73.9 cpm × 10^3. In test [1] (mixture of two APC lines), the “Proliferation (Day 3) ^3HTdR incorporation, L^d + B7.1 combined with L^d + ICAM-1” value turned out to be 132.9 cpm × 10^3. For the same substance, the “lymphocytes included in rosettes” value in the test with 2C+ T-cells (Drosophila S2 cells expressing L^d or L^d-coated SRBC) and in the test on 2C+ T-cells (Drosophila S2 cells expressing L^d or L^d-coated latex beads) was 30-40% throughout.

The values above are taken from US20030138946A1.
